Measured values reported in patent US5679695A, “Aryl and heteroaryl compounds having anti-retrovirus activity” (The University of Connecticut, priority 1995, dated 1997).
pEC50: −log10 of the molar value.

Assays:
[1] = tested on: LP-BM5 MuLV; assay: LP-BM5 MuLV UV-XC plaque assay; format: cell-based, Murine Leukemia Virus
Description: One such method is used to determine the effectiveness of representative compounds and compositions of the present invention in the Rauscher and LP-BMS Murine Leukemia Virus (MLV) In Vitro Assays.
SC-1 cells were grown as monolayers in 6-well tissue culture plates (Falcon). The a test compound was added to the cultures at the time of virus inoculation (approximately 24 hours after the cells were seeded) and was present for 3 days, at which time the cultures were irradiated with UV light. All compounds were solubilized in DMSO prior to dilution in grown medium. The highest concentration of DMSO present in the cultures was 0.05%. The test cultures (triplicate cultures per drug concentrate) each contained 2 ml of test compound diluted in growth medium (Eagle's minimum) essential medium (EMEM) supplemented with 5% heat-inactivated fetal bovine serum (FBS) and 0.5 ml of the virus suspension diluted to produce a countable number of plaques per well. The six virus control cultures contained 2 ml of medium and 0.5 ml of the virus suspension. NSC606170(ddC) was included as a positive control. drug. Drug cytotoxicity control cultures (containing test compound) but no virus and cell control culture (containing no test compound) or virus were included in the assay. On day 3 post-virus inoculation, the cultures were irradiated and XC cells were added. Three days after V-irradiation, the cultures were fixed with formalin and stained with 0.1% crystal violet. The plaques were counted with the aid of a dissection microscope.
Using the procedure, the following data is generated from representative compounds of the presnet invention.

[2] = tested on: HIV-1; assay: XTT assay of protection from HIV-1 cytopathic effect, infected, CEM-IW; format: cell-based, Human Immunodeficiency Virus; details: Human immunodeficiency virus 1, CEM-IW, summary table; read-out: CEM-IW EC50
Description: Another assay for testing the efficacy of the compounds is the procedure* used in the National Cancer Institute's test for agents active against Human Immunodeficiency Virus (HIV). It is designed to detect agents acting at any stage of the virus reproductive cycle. The assay basically involves the killing of T4 lymphocytes by HIV. Small amounts of HIV are added to cells, and a complete cycle of virus reproduction is necessary to obtain the required cell killing. Agents that interact with virions, cells, or virus gene-products to interfere with viral activities will protect cells from cytolysis. The system is automated in several features to accommodate large numbers of candidate agents and is generally designed to detect anti-HIV activity. However, compounds that degenerate, or are rapidly metabolized in the culture conditions may not show activity in this screen. All tests are compared with at least one positive (e.g., AZT-treated) control done at the same time under identical conditions.
* Weislow. O. W., Kiser, R., Fine, D., Bader, J., Shoemaker, R. H., Boyd, M. R.: New soluble-formazan assay for HIV-1 cytopathic effects: application to high-flux screening of synthetic and natural products for AIDS-antiviral activity. J. Natl. Cancer Inst. 81:577-586, 1989.
1. The Candidate agent is dissolved in dimethyl sulfoxide (unless otherwise instructed) then diluted 1:100 in cell culture medium before preparing serial half-log10 dilutions. T4 lymphocytes (CEM cell line) are added and after a brief interval HIV-1 added, resulting in a 1:200 final dilution of the compound. Uninfected cells with the compound serve as a toxicity control, and infected and uninfected cells without compound serve as basic controls.
2. Cultures are incubated at 37° in a 5% carbon dioxide atmosphere for 6 days.
3. The tetrazolium salt, XTT, is added to all wells, and cultures are incubated to allow formazan color development by viable cells.
4. Individual wells are analyzed spectrophotometrically to quantitate formazan production, and in addition are viewed microscopically for detection of viable cells and confirmation of protective activity.
5. Drug-treated virus-infected cells are compared with drug-treated noninfected cells and with other appropriate controls (untreated infected and untreated noninfected: cells, drug-containing wells without cells, etc.) on the same plate.
6. Data are reviewed in comparison with other tests done at the same time and a determination about activity is made.

[3] = Storage in a clear glass bottle; format: physicochemical; details: several weeks of storage in a clear glass bottle

## Cc1ccc(S(=O)(=O)c2ccccc2[N+](=O)[O-])cc1 [Compound 2, 1-(4-Methylphenylsulfonyl)-2-nitrobenzene]
[1]; 1 × 10^-3 M
  Mean plaque count: 130
  Plaque count, replicate #1: 162
  Plaque count, replicate #2: 123
  Plaque count, replicate #3: 104
[1]; 1 × 10^-4 M
  Mean plaque count: 50
  Plaque count, replicate #1: 43
  Plaque count, replicate #2: 37
  Plaque count, replicate #3: 70
[1]; 1 × 10^-5 M
  Mean plaque count: 245
  Plaque count, replicate #1: 265
  Plaque count, replicate #2: 204
  Plaque count, replicate #3: 267
[1]; 1 × 10^-6 M
  Mean plaque count: 264
  Plaque count, replicate #1: 270
  Plaque count, replicate #2: 217
  Plaque count, replicate #3: 304
[1]; 1 × 10^-7 M
  Mean plaque count: 299
  Plaque count, replicate #1: 327
  Plaque count, replicate #2: 269
  Plaque count, replicate #3: 301
[1]; 1 × 10^-8 M
  Mean plaque count: 318
  Plaque count, replicate #1: 299
  Plaque count, replicate #2: 340
  Plaque count, replicate #3: 314
[1]; Murine leukemia virus, SC-1, 1 × 10^-4 M, read-out: % Plaque Reduction
  inhibition at 100 µM: 82%
[1]; Murine leukemia virus, SC-1, 1 × 10^-5 M, read-out: % Plaque Reduction
  inhibition at 10 µM: 14%
[1]; Murine leukemia virus, SC-1, 1 × 10^-6 M, read-out: % Plaque Reduction
  inhibition at 1 µM: 8%
[1]; Murine leukemia virus, SC-1, 1 × 10^-7 M, read-out: % Plaque Reduction
  inhibition at 0.1 µM: 0%
[1]; Murine leukemia virus, SC-1, 1 × 10^-8 M, read-out: % Plaque Reduction
  inhibition at 0.01 µM: 0%
[2]
  pEC50: 4.84
[3]
  colour change on storage: turned light green
